Key:
[1] = single administration of TAK-652 solution, healthy male volunteers; cited from earlier work
[2] = in vivo; cited from earlier work
HIV-1 = details: dose-dependent, treatment period of 10-14 days; cited from earlier work
[3] = test system: reporter viruses pseudotyped with HIV-1JR-FL envelope (U87-CD4-CCR5 cells); test: microbe, parasite or virus in culture; type: cell-based
[4] = test system: reporter viruses pseudotyped with HIV-1SF162 envelope (U87-CD4-CCR5 cells); test: HIV-1 pseudovirus assay, SF162 envelope; type: cell-based; details: HIV-1 envelope SF162, 1st inhibitor alone
Source text: A self-inactivating (SIN) vector was derived from the pNL4-3ΔEnv-luciferase vector (Dragic et al. 1996) by deleting 507 basepairs in the U3 region of the 3′ long terminal repeat (LTR) so as to remove the TATA box and transcription factor binding sites. The human cytomegalovirus promoter was inserted upstream of the luciferase (luc) gene to enable expression of luciferase following integration.
Reporter viruses pseudotyped with HIV-1JR-FL or HIV-1SF162 envelopes were generated by cotransfection of 293T cells with the SIN vector and the appropriate pcDNA env-expressing vector as previously described (Dragic et al. 1996). […] Cultures were incubated for 72 h at 37° C. in DMEM containing 10% fetal bovine serum, […] puromycin, 0.3 mg/mL geneticin, antibiotics, and 0.5% DMSO. Luciferase activity (relative light units or RLU) was measured using. BrightGlo reagent (Promega, Madison, Wis.) according to the manufacturer's instructions.
Experimental design and data analysis were based on the combination index (CI) method (Chou et al. 1991; Chou et al. 1984). […] The mutually exclusive CI formula was used for combinations of CCR5 inhibitors, while the mutually non-exclusive formula was utilized for combinations of inhibitors to distinct targets (Chou et al. 1991). Each test was conducted 4-12 times. Synergy, additivity and antagonism are indicated by CI<1, CI=1 and CI>1, respectively.

[5] = molecular target: T1, CCR5 on CEM.NKR-CCR5 cells (Homo sapiens, UniProt P51681); test: Competition binding: inhibition of PRO 140-PE binding; details: CEM.NKR-CCR5 cells, flow cytometry
T1 construct: host or cells: CEM.NKR-CCR5 (transduced human T cell leukemia line)
Experimental: Azide was added to block CCR5 internalization during the assay.

[6] = test system: primary R5 HIV-1 isolates JR-FL and Case C 1/85 (CC1/85); test: In vitro resistance selection and susceptibility testing on PBMC; type: cell-based; details: p24 ELISA
Experimental: For susceptibility testing, viruses were cultured in vitro on stimulated PBMC. In the presence and absence of serially diluted drug, and the extent of viral replication was determined by p24 ELISA.

[7] = molecular target: CCR5 (CC-chemokine receptor 5) (human) (UniProt P51681); test: cell-based or functional assay

T1 sequence (P51681 whole entry): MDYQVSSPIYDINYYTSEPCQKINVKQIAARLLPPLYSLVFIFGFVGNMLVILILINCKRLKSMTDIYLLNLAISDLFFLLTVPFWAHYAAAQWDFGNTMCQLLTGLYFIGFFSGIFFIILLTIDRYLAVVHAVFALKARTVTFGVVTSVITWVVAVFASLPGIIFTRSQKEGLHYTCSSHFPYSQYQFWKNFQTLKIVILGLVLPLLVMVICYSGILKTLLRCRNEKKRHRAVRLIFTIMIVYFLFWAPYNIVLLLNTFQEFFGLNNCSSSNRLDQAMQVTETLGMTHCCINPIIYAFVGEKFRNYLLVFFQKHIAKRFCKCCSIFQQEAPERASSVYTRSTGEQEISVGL

In the case of `CCCCOCCOc1ccc(-c2ccc3c(c2)/C=C(/C(=O)Nc2ccc([S@@+]([O-])Cc4cncn4CCC)cc2)CCCN3CC(C)C)cc1.CS(=O)(=O)O` [TAK-652], the safety and tolerability [1] is given as “safe and well tolerated” and the oral bioavailability [2] is given as “orally bioavailable”.
For `CCCCN1C(=O)[C@@H]([C@H](O)C2CCCCC2)NC(=O)C12CCN(Cc1ccc(Oc3ccc(C(=O)O)cc3)cc1)CC2` [GW873140], the “mean reductions in HIV-1 RNA levels” value (HIV-1) is listed as roughly 1 log10.
In the case of `COC[C@@H](c1ccc(C(F)(F)F)cc1)N1CCN(C2(C)CCN(C(=O)c3c(C)ncnc3C)CC2)C[C@@H]1C` [SCH-D, 1-[(4,6-dimethyl-5-pyrimidinyl)carbonyl]-4-[4-[2-methoxy-1(R)-4-(trifluoromethyl)phenyl]ethyl-3(S)-methyl-1-piperazinyl]-4-methylpiperidine], the IC90 ([3]; HIV-1 envelope JRFL, 1st inhibitor alone, read-out: IC90) is reported as 44 nM, the IC50 ([4]; read-out: IC50) is reported as 0.34 nM and the IC90 ([4]; read-out: IC90) is reported as 14 nM. For the same molecule, the “inhibition of PRO 140-PE binding (in words)” value [5] was “modest levels of inhibition”, the “inhibition of PRO 140 escape mutants” value [6] was “efficiently inhibited” and the “mean reductions in HIV-1 RNA levels” value (HIV-1) was roughly 1 log10.
anti-CCR5 mAb 2D7 (antibody) showed an IC50, HIV-1 reporter virus pseudotyped with JRFL envelope, U87-CD4-CCR5 cells [7] of 8.8 nM, an IC50, HIV-1 reporter virus pseudotyped with SF162 envelope, U87-CD4-CCR5 cells [7] of 2.2 nM and an IC90, HIV-1 reporter virus pseudotyped with JRFL envelope, U87-CD4-CCR5 cells [7] greater than 200 nM. The IC90, HIV-1 reporter virus pseudotyped with SF162 envelope, U87-CD4-CCR5 cells [7] was 74 nM.
With “RANTES: CC-chemokine, natural peptide ligand of CCR5” the “inhibition of HIV-1 pseudovirus entry” value ([3]; compound alone (data not shown)) was “Neither TAK-779 nor RANTES mediated consistent, high-level inhibition”.
